Source: US5977133A, “Pyridone antibiotic with improved safety profile” (priority 1998, dated 1999)
Counter-ions that a name gives are not always drawn.

Tested on: bacteria
Assay: In vitro antibacterial activity (overall statement)
Type: cell-based
Conditions: ciprofloxacin resistant strains

CN[C@@H]1CN(c2c(F)cn3c(=O)c(C(=O)O)cc(C4CC4)c3c2C)CC12CC2 [Example 1, 1-cyclopropyl-8-(7(S)-N-methylamino-5-azaspiro[2.4]heptyl)-7-fluoro-9-methyl-4-oxo-4H-guinolizine-3-carboxylic acid hydrochloride]
activity against ciprofloxacin resistant strains in words: highly active against ciprofloxacin resistant strains
